Source: article PMC9241695, “Selective Metal Chelation by a Thiosemicarbazone Derivative Interferes with Mitochondrial Respiration and Ribosome Biogenesis in Candida albicans” (Microbiology Spectrum, 2022)
In brackets after ≈: the same amount, converted by molar mass. Like-named read-outs stand apart in the source and are kept apart here.

What was measured:
[1] = tested on: A. fumigatus AF293; assay: Antifungal susceptibility testing, microbroth dilution MIC; type: cell-based; details: Aspergillus fumigatus, read-out: MIC (μg/mL) against fungi AF293
From the text: (§1) Compound library. The thiosemicarbazone derivatives Triapine and COTI-2 were purchased from Med Chem Express (MCE). The other 87 thiosemicarbazones used in this study were previously synthesized by our collaborators (1, 2). Their structures are shown in Table 1 and Table S1 to help the reader clearly understand the relationship between structure and activity.
(§2) Strains and culture conditions. Clinically derived C. albicans isolates, including G5, F5, and Gu5, were kindly provided by Professor Joachim Morschhäuser of the University of Würzburg. Other clinical C. albicans isolates were kindly donated by Professor Qingguo Qi of Shandong University and Qianfoshan Hospital of Shandong Province Other Candida strains were obtained from Jinan Central Hospital.
(§3) The zap1 mutant and its complemented strain were kindly provided by Professor Aaron P. Mitchell of Carnegie Mellon University (3). The C. neoformans strains used in this study was kindly donated by Professor Guojian Liao of Southwest University and A. fumigatus strain used in this study was provided by Professor Ling Lu of Nanjing Normal University. […]
(§4) Antifungal susceptibility testing. To determine in vitro antifungal activities, the microbroth dilution method was carried out in RPMI1640 medium according to the guidelines of the Clinical and Laboratory Standards Institute (4, 5). The initial concentration in RPMI1640 medium was 1 × 10^3 CFU/mL for the C. albicans and C. neoformans suspensions but 1 × 10^4 CFU/mL for A. fumigatus. The range of final drug concentrations was 0.0156–64 μg/mL. The plates were incubated at35°C for 24 […]
(§5) h (for C. albicans, C. krusei, C. tropicalis, C. parapsilosis) or 48 h (for C. neoformans, A. fumigatus). The MIC was determined based on visible growth inhibition compared with the control. All experiments were performed in duplicate. […]

[2] = tested on: C. neoformans H99; assay: as above; type: cell-based; details: Cryptococcus neoformans, read-out: MIC (μg/mL) against fungi H99
From the text: as §1, §2, §3, §4, §5

[3] = tested on: C. albicans SC5314; assay: as above; type: cell-based; details: Candida albicans, read-out: MIC (μg/mL) against fungi SC5314
From the text: as §1, §2
(§6) The zap1 mutant and its complemented strain were kindly provided by Professor Aaron P. Mitchell of Carnegie Mellon University (3). The C. neoformans strains used in this study was kindly donated by Professor Guojian Liao of Southwest University and A. fumigatus strain used in this study was provided by Professor Ling Lu of Nanjing Normal University. Before in vitro and in vivo experiments, all C. albicans strains were grown on YPD agar plates. After culturing at 30°C for 24 h, colonies of each strain were cultured in liquid YPD medium at 30°C with continuous shaking […]
as §4, §5

[4] = tested on: C. albicans YEM13; assay: Microbroth dilution MIC80; type: cell-based; details: Candida albicans
From the text: as §1, §2, §6, §4, §5

[5] = tested on: C. albicans 24g; assay: Microbroth dilution MIC80; type: cell-based; details: Candida albicans, 24G
From the text: as §1, §2, §6, §4, §5

[6] = tested on: C. albicans 28D; assay: Microbroth dilution MIC80; type: cell-based; details: Candida albicans, 28D
From the text: as §1, §2, §6, §4, §5

[7] = tested on: C. albicans F5; assay: Microbroth dilution MIC80; type: cell-based; details: Candida albicans, F5
From the text: as §1, §2, §6, §4, §5

[8] = tested on: C. albicans CA1; assay: Microbroth dilution MIC80; type: cell-based; details: Candida albicans, CA1
From the text: as §1, §2, §6, §4, §5

[9] = tested on: C. albicans CA3; assay: Microbroth dilution MIC80; type: cell-based; details: Candida albicans, CA3
From the text: as §1, §2, §6, §4, §5

[10] = tested on: A. fumigatus 1161; assay: Microbroth dilution MIC80; type: cell-based; details: Aspergillus fumigatus
From the text: as §1, §2, §6, §4, §5

[11] = tested on: C. neoformans 108; assay: Microbroth dilution MIC80; type: cell-based; details: Cryptococcus neoformans, 108
From the text: as §1, §2, §6, §4, §5

[12] = tested on: C. albicans 28A; assay: Microbroth dilution MIC80; type: cell-based; details: Candida albicans, 28A
From the text: as §1, §2, §6, §4, §5

[13] = tested on: C. albicans 11e; assay: Microbroth dilution MIC80; type: cell-based; details: Candida albicans, 11E
From the text: as §1, §2, §6, §4, §5

[14] = tested on: C. albicans YEM15; assay: Microbroth dilution MIC80; type: cell-based; details: Candida albicans, YEM15
From the text: as §1, §2, §6, §4, §5

[15] = tested on: C. albicans DSY654; assay: Microbroth dilution MIC80; type: cell-based; details: Candida albicans
From the text: as §1, §2, §6, §4, §5

[16] = tested on: C. albicans 11f; assay: Microbroth dilution MIC80; type: cell-based; details: Candida albicans, 11F
From the text: as §1, §2, §6, §4, §5

[17] = tested on: C. albicans 28I; assay: Microbroth dilution MIC80; type: cell-based; details: Candida albicans, 28I
From the text: as §1, §2, §6, §4, §5

[18] = tested on: C. tropicalis CT2; assay: Microbroth dilution MIC80; type: cell-based; details: Candida tropicalis, CT2
From the text: as §1, §2, §6, §4, §5

[19] = tested on: C. albicans CA4; assay: Microbroth dilution MIC80; type: cell-based; details: Candida albicans, CA4
From the text: as §1, §2, §6, §4, §5

[20] = tested on: C. albicans G5; assay: microbe, parasite or virus in culture; type: cell-based; details: Candida albicans, G5
From the text: as §1, §2, §6, §4, §5

[21] = tested on: C. albicans Gu5; assay: microbe, parasite or virus in culture; type: cell-based; details: Candida albicans, GU5
From the text: as §1, §2, §6, §4, §5

[22] = tested on: human hepatocellular carcinoma cell line HepG2; assay: Cytotoxicity testing (MTT); type: cell-based; details: ratio of IC50 against HepG2 to MIC80 against C. albicans SC5314
[23] = Cytotoxicity testing (MTT); type: cell-based, human; details: human, HepG2 cells (hepatocellular carcinoma cell line)
[24] = tested on: C. albicans SC5314; assay: Minimal fungicidal concentration (MFC); type: cell-based; details: Candida albicans, read-out: MFC against C. albicans SC5314
[25] = tested on: C. krusei CK1; assay: Microbroth dilution MIC80; type: cell-based, Candida krusei; details: Pichia kudriavzevii, CK1
From the text: as §1, §2, §6, §4, §5

[26] = tested on: human bronchial epithelial cell line 16HBE; assay: Cytotoxicity testing (MTT); type: cell-based; details: ratio of IC50 against 16HBE to MIC80 against C. albicans SC5314
Description: (§7) h (for C. albicans, C. krusei, C. tropicalis, C. parapsilosis) or 48 h (for C. neoformans, A. fumigatus). The MIC was determined based on visible growth inhibition compared with the control. All experiments were performed in duplicate.
(§8) Cytotoxicity testing. The cell lines HK2 and 16HBE were used to evaluate the cytotoxicity of 19ak, 19k and 19t. Cells in DMEM containing 10% fetal bovine serum (Gibco) were seeded in 96-well tissue culture plates at a cell density of 1 × 10^4 cells/mL and incubated for 24 h to allow adhesion. The supernatant was then replaced with fresh DMEM containing various concentrations of 19ak, 19k and 19t. The plates were subsequently incubated for an additional 48 h at 37°C with 5% CO2, followed by the addition of 10 μL of MTT solution to each well and incubation at 37°C for 4 h.
(§9) The effects of the compounds on cell proliferation were detected by measuring the absorbance at 570 nm in a microplate reader (BioTek, VT, USA). Three independent experiments were conducted. […]

[27] = tested on: human renal epithelial cell line HK2; assay: Cytotoxicity testing (MTT); type: cell-based; details: ratio of IC50 against HK2 to MIC80 against C. albicans SC5314
Description: as §7, §8, §9

[28] = Cytotoxicity testing (MTT); type: cell-based, human; details: human, 48 h, MTT
Description: as §7, §8, §9

[29] = tested on: C. parapsilosis CP001; assay: Microbroth dilution MIC80; type: cell-based, Candida parapsilosis; details: Lodderomyces parapsilosis, CP001
From the text: as §1, §2, §6, §4, §5

[30] = tested on: C. albicans SC5314; assay: qPCR of genes associated with ribosome biogenesis; type: cell-based, Candida albicans; details: CPX 0.5 or 2 μg/mL 8 h; DFO 64 µg/mL 6 h; TPEN 0.05 or 0.2 μg/mL 6 h
Description: Determination of SOD activity. SOD activity was measured using the Superoxide Dismutase Activity Assay Kit (Njjcbio, Nanjing, China) following the manufacturer's instructions. An overnight culture of C. albicans SC5314 was adjusted to 1 × 10^7 cells/mL with RPMI1640 medium and treated with 19ak at a final concentration of 0, 0.125, 0.25, 0.5, or 1 μg/mL for 6 h. After collection by centrifugation, the cells were broken by glass beads in extraction buffer and centrifuged at 4°C. The absorbance of the supernatant of each sample was measured with a microplate reader at450 nm.
Determination of catalase (CAT) activity. CAT activity was measured by using a Catalase Assay Kit (Solarbio, Beijing, China) following the manufacturer's instructions. An overnight culture of C. albicans SC5314 was adjusted to 1 × 10^6 cells/mL with RPMI1640 medium and treated as described above for SOD activity.
The decomposition of H2O2 is directly accompanied by a decrease in absorbance at 240 nm, and the difference in absorbance per unit time (ΔA240) is a measure of […]
Quantitative real-time polymerase chain reaction (qPCR) analysis. C. albicans SC5314 cells (1 × 10^6 cells/mL) were incubated with or without 19ak (0.5,2 […]
Total RNA was extracted using the hot phenol method, and the RNA quality was analyzed using a spectrophotometer (Eppendorf, Hamburg, Germany). The RNA was converted to cDNA using a cDNA Reverse
Transcription kit (Accurate Biotechnology, Hunan, China). PCR detection based on SYBR Green was performed on an Eppendorf real-time PCR system (Eppendorf, […]
Drug resistance study. Drug resistance studies were carried out by repeatedly treating C. albicans with an antifungal agent followed by MIC determination using […]

[31] = AF293, standard strain of A. fumigatus, 48 h
[32] = H99, C. neoformans wild-type strain, 48 h
[33] = SC5314, C. albicans wild-type strain, RPMI1640, 35°C, 24 h

SMILES: S=C(N/N=C1\CCCc2cccnc21)N1CCN(c2ccccn2)CC1 [COTI-2, 4-(pyridine-2-yl)-N-([(8E)-5,6,7,8-tetrahydroquinolin-8-ylidene]amino) piperazine-1-carbothioamide, reference compound]
- MIC ([1]; AF293, 48 h): 1 µg/mL (≈ 2.73 µM)
- MIC ([2]; H99, 48 h): 0.0625 µg/mL (≈ 0.171 µM)
- MIC ([3]; SC5314, 24 h): 0.5 µg/mL (≈ 1.36 µM)

SMILES: NC(=S)NN=Cc1ncccc1N [Triapine, 3-aminopyridine-2-carboxaldehyde thiosemicarbazone, reference compound]
- MIC [1, 31]: 32 µg/mL (≈ 164 µM)
- MIC [2, 32]: 4 µg/mL (≈ 20.5 µM)
- MIC [3, 33]: 32 µg/mL (≈ 164 µM)

SMILES: S=C(N/N=C/c1ccc(Br)cn1)Nc1ccc(Br)cc1 [Compound 19k]
- MIC80 [4]: 2 µg/mL (≈ 4.83 µM)
- MIC80 [5]: 1 µg/mL (≈ 2.41 µM)
- MIC80 [6]: 1 µg/mL (≈ 2.41 µM)
- MIC80 [7]: 1 µg/mL (≈ 2.41 µM)
- MIC80 [8]: 1 µg/mL (≈ 2.41 µM)
- MIC80 [9]: 1 µg/mL (≈ 2.41 µM)
- MIC80 [10]; 1161: 0.5 µg/mL (≈ 1.21 µM)
- MIC80 [11]: 0.031 µg/mL (≈ 0.0749 µM)
- MIC80 [12]: 2 µg/mL (≈ 4.83 µM)
- MIC80 [13]: 2 µg/mL (≈ 4.83 µM)
- MIC80 [14]: 2 µg/mL (≈ 4.83 µM)
- MIC80 [15]: 1 µg/mL (≈ 2.41 µM)
- MIC80 [16]: 2 µg/mL (≈ 4.83 µM)
- MIC80 [17]: 1 µg/mL (≈ 2.41 µM)
- MIC80 [18]: 2 µg/mL (≈ 4.83 µM)
- MIC80 [19]: 0.5 µg/mL (≈ 1.21 µM)
- MIC80 [20]: 4 µg/mL (≈ 9.66 µM)
- MIC80 [21]: 2 µg/mL (≈ 4.83 µM)
- Selectivity index HepG2 [22]: 28
- IC50 [23]: 28 µg/mL (≈ 67.6 µM)
- MIC [1, 31]: 8 µg/mL (≈ 19.3 µM)
- MIC [2, 32]: 0.031 µg/mL (≈ 0.0749 µM)
- MFC [24]: > 64 µg/mL
- MIC [3, 33]: 1 µg/mL (≈ 2.41 µM)
- MIC80 [25]: 4 µg/mL (≈ 9.66 µM)
- Selectivity index 16HBE [26]: 36.43
- Selectivity index HK2 [27]: 63.88
- IC50 at 48 h ([28]; 16HBE cells (bronchial epithelial cell line), 16HBE cells): 36.4 µg/mL (≈ 88 µM)
- IC50 at 48 h ([28]; HK2 cells (renal epithelial cell line), HK2 cells): 63.9 µg/mL (≈ 154 µM)
- MIC80 [29]: 2 µg/mL (≈ 4.83 µM)

SMILES: C/C(=N\NC(=S)Nc1ccccc1)c1ccccn1 [Compound 19ac]
- MIC ([1]; AF293, 48 h): 16 µg/mL (≈ 59.2 µM)
- MIC ([2]; H99, 48 h): 0.25 µg/mL (≈ 0.925 µM)
- MIC ([3]; SC5314, 24 h): 2 µg/mL (≈ 7.4 µM)

SMILES: CC(=O)N(O)CCCCCNC(=O)CCC(=O)N(O)CCCCCNC(=O)CCC(=O)N(O)CCCCCN [DFO, deferoxamine]
- Expression of genes associated with ribosome biogenesis (qPCR) [30]: minor effects

SMILES: C[C@@H](c1ncncc1F)[C@](O)(Cn1cncn1)c1ccc(F)cc1F [VOR, voriconazole, reference compound]
- MIC80 ([10]; A. fumigatus 1161, read-out: MIC80): 0.25 µg/mL (≈ 0.716 µM)
- MIC [1, 31]: 0.25 µg/mL (≈ 0.716 µM)
